# Measurements published in patent US20040121021A1, “Determination of adequate ozone disinfection” (priority 2002, published 2004).
# Assay: Bleaching of dye-impregnated filter paper strips in flowing ozonated water
# Format: physicochemical
# From the text: Each kind of indicator-impregnated substrate, or Ct strip, must be tested to empirically determine the Ct value range most suitable for that particular combination of indicator and substrate. To empirically determine the Ct value range for a Ct strip having a particular indicator impregnated onto a particular substrate having particular properties, the particular Ct strip is exposed to known concentrations of ozone over incremental periods of time. The resulting color of the substrate is recorded after given increments of time until the color is entirely bleached out or until a maximum desired exposure time has passed. The color of the Ct strip, after each time increment of immersion in a known concentration of ozone, is an accurate measure of the Ct value for an exposed surface. The resulting colors are recorded for comparison use, as on a color chart, for that particular combination of indicator and substrate. Strips of filter paper ½″×2″ were cut and immersed in a 1000 ppm solution of Solvent Green 3 (1,4-bis[(4-methylphenyl)amino]-9,10-anthracenedione) in acetone for 5 seconds at room temperature. When dyed in this manner, strips were initially an extremely dark green and dried to a medium green color. When submerged in a flowing bath of 3 ppm ozone dissolved in water, bleaching was observed. […] Strips of filter paper ½″×2″ were cut and immersed in a 1000 ppm solution of Solvent Red 23 in acetone for 5 seconds at room temperature. When submerged in a flowing bath of 5 ppm ozone dissolved in water, bleaching was observed. […] Strips of filter paper ½″×2″ were cut and immersed in a 1000 ppm solution of Solvent Violet 13 in acetone for 5 seconds at room temperature. When submerged in a flowing bath of 5 ppm ozone dissolved in water, bleaching was observed. […] Strips of filter paper ½″×2″ were cut and immersed in a 500 ppm solution of Solvent Yellow 33 in acetone for 5 seconds at room temperature. When submerged in a flowing bath of 6 ppm ozone dissolved in water, bleaching was observed.
smiles,measurement,setting,value
Cc1ccc(Nc2ccc(O)c3c2C(=O)c2ccccc2C3=O)cc1 [Solvent Violet 13],color loss,"filter paper strip dyed in 1000 ppm Solvent Red 23 solution in acetone, flowing bath of 5 ppm ozone dissolved in water, after 240 minutes",~75%
O=C1c2ccccc2C(=O)C1c1ccc2ccccc2n1 [Solvent Yellow 33],color loss,"filter paper strip dyed in 500 ppm solution in acetone, flowing bath of 6 ppm ozone dissolved in water, after 20 minutes",complete color loss
Oc1ccc2ccccc2c1N=Nc1ccc(N=Nc2ccccc2)cc1 [Solvent Red 23],color loss,"filter paper strip dyed in 1000 ppm Solvent Red 23 solution in acetone, flowing bath of 5 ppm ozone dissolved in water, after 90 minutes",~30%
"Cc1ccc(Nc2ccc(Nc3ccc(C)cc3)c3c2C(=O)c2ccccc2C3=O)cc1 [Solvent Green 3, 1,4-bis[(4-methylphenyl)amino]-9,10-anthracenedione]",color loss,"filter paper strip dyed in 1000 ppm solution in acetone, flowing bath of 3 ppm ozone dissolved in water, after 90 minutes",~40%
